From ChEMBL document CHEMBL1201862, “PubChem BioAssay data set” (2004)
Blank lines part the entries; values can stand above or below the molecule they belong to. Calls of active or inactive are those of the source.

What was measured:
[1] = target: T1, E3 ubiquitin-protein ligase XIAP (Homo sapiens, UniProt P98170); experiment: small molecules displacing peptide from XIAP – biochemical, IAP family, fluorescence polarization (AID 1018); type: functional
Leucine aminopeptidase = target: T2, Leucine aminopeptidase (Plasmodium falciparum 3D7, UniProt Q8IL11); experiment: P. falciparum M17LAP inhibitors, primary screen, biochemical, fluorogenic H-Leu-NHMec substrate, 1536-well (AID 1619); type: functional
T2 sequence (Q8IL11 whole entry): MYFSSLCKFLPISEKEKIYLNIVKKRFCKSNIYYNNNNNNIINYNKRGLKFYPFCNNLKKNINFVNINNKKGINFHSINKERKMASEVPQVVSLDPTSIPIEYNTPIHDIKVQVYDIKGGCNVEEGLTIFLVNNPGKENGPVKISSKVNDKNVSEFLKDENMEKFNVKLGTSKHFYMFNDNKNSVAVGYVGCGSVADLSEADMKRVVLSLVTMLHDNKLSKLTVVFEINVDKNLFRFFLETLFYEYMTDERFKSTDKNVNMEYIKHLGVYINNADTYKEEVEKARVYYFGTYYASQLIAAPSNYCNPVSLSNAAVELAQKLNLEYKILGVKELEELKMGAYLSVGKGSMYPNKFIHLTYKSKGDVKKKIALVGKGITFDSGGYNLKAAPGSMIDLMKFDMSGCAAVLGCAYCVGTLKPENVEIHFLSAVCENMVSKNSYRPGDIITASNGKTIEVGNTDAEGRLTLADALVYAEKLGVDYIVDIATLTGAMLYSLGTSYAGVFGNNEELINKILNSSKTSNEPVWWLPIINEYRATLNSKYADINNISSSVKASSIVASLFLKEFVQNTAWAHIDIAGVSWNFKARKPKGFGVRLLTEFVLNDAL

[2] = target: FAD-linked sulfhydryl oxidase ALR (Homo sapiens, UniProt P55789); experiment: ALR-catalysed DTT oxidation blockers – biochemical, H2O2 detection, luminescence, cherry-pick, dose response (AID 493248)
Chain of FAD-linked sulfhydryl oxidase ALR (P55789 whole entry): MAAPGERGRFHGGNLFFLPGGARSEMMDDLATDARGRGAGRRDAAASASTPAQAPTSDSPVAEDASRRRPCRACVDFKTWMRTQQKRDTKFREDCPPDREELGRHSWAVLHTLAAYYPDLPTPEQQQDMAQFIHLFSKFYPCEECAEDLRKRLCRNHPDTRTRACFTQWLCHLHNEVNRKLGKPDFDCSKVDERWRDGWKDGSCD

[3] = target: T1, E3 ubiquitin-protein ligase XIAP; experiment: Counter Screen using XIAP-Bir3 for Chemical Antagonists of Bir1/2 domains of IAP-family anti-apoptotic proteins. [Related pubchem assays (depositor defined):AID1018, AID1449, AID1514, AID1638, AID1749, AID1750, AID488957, AID488963]
[4] = viability of HCT116 lacking mutant beta-catenin – cell-based, human colon tumor, dose response (AID 1045); type: functional;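 note: HCT116 colon tumor cells with beta catenin knocked out; cells exposed to compound for 60 hours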
Beta-galactosidase = Beta-galactosidase (Escherichia coli, UniProt Q8VNN2); experiment: PubChem AID 485352; type: functional
Chain of Beta-galactosidase (Q8VNN2 whole entry): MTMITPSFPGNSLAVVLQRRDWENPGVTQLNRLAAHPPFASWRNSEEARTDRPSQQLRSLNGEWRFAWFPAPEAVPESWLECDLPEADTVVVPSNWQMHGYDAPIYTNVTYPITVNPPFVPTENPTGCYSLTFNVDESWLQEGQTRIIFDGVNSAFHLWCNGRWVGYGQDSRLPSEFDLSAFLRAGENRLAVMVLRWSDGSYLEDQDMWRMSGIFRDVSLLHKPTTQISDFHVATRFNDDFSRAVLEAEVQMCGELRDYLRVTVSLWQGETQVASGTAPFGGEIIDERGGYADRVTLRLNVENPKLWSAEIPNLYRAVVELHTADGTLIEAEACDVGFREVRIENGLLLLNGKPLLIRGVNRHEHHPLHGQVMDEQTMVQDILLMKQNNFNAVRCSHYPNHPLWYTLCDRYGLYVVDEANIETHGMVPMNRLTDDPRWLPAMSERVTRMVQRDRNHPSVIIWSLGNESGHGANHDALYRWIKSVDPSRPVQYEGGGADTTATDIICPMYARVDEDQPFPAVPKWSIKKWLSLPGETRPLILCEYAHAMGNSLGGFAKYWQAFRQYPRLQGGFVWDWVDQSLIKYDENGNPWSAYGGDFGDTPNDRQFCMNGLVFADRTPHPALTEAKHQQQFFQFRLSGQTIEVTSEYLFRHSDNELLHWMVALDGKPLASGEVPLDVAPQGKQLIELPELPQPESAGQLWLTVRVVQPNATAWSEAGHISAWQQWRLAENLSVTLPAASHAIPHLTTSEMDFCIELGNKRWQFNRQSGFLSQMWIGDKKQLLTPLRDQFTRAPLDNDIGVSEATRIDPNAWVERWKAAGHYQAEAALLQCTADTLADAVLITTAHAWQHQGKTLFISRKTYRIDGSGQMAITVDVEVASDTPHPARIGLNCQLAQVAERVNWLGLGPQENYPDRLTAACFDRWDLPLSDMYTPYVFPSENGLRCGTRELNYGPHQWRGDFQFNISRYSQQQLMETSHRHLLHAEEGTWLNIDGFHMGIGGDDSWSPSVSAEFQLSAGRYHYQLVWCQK

[5] = target: Type-1 angiotensin II receptor (Homo sapiens, UniProt P30556); experiment: antagonism of angiotensin II type 1 receptor – cell-based, uHTS hits, selectivity assay for APJ receptor antagonist project, dose response (AID 463214); type: functional;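 note: antagonist potency against angiotensin II stimulated AT1 response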
Chain of Type-1 angiotensin II receptor (P30556 whole entry): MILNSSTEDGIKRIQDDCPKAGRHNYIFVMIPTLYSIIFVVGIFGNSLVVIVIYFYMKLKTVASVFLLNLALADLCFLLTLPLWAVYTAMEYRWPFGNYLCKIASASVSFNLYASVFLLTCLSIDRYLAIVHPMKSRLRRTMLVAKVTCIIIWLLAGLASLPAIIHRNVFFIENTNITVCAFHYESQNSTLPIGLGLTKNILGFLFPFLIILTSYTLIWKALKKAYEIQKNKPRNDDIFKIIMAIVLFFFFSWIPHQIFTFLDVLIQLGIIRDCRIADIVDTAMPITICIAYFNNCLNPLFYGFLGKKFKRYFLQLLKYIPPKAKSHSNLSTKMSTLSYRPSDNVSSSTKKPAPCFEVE

[6] = viability of PTEN-deleted HCT116 cells – cell-based, HCT116 PTEN knockout, dose response (AID 1047); type: functional;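 note: HCT116 colon tumor cells with PTEN knocked out; cells exposed to compound for 60 hours before readout; potency for loss of cell viability measured by luminescence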
[7] = target: T3, Short transient receptor potential channel 4 (Mus musculus, UniProt Q9QUQ5); experiment: calcium entry via TRPC4 opening agents – cell-based, HEK293 TRPC4/mu-opioid, Fluo-4 calcium, dose response (AID 434937); type: functional
T3 sequence (Q9QUQ5 whole entry): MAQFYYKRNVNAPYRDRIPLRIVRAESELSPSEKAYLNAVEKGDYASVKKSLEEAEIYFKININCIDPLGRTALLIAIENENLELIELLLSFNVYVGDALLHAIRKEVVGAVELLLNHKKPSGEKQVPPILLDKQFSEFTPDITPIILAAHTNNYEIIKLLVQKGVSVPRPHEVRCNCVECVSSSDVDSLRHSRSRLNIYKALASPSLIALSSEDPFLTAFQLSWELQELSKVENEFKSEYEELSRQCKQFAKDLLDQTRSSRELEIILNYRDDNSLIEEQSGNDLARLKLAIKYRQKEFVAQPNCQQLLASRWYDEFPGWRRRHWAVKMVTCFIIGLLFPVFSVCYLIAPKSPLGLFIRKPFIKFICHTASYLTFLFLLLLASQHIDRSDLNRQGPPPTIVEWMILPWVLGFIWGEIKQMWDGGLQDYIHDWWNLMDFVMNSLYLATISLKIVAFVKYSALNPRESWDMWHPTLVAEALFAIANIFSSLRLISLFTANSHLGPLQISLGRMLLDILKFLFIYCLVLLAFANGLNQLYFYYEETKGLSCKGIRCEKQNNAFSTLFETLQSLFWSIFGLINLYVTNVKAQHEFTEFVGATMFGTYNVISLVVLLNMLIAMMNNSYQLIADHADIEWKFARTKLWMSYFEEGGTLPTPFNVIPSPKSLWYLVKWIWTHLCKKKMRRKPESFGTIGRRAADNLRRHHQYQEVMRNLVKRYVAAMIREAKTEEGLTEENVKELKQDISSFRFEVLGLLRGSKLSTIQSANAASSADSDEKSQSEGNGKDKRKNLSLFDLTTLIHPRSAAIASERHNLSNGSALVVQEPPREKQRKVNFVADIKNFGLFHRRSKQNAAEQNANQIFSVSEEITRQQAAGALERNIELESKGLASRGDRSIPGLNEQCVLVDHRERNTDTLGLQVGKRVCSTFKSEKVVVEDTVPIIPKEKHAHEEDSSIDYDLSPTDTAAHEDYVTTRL

[8] = target: Intestinal-type alkaline phosphatase (Homo sapiens, UniProt P09923); experiment: human intestinal alkaline phosphatase activators, dose response, biochemical, luminescence, uHTS hits (AID 463120); type: functional
Chain of Intestinal-type alkaline phosphatase (P09923 whole entry): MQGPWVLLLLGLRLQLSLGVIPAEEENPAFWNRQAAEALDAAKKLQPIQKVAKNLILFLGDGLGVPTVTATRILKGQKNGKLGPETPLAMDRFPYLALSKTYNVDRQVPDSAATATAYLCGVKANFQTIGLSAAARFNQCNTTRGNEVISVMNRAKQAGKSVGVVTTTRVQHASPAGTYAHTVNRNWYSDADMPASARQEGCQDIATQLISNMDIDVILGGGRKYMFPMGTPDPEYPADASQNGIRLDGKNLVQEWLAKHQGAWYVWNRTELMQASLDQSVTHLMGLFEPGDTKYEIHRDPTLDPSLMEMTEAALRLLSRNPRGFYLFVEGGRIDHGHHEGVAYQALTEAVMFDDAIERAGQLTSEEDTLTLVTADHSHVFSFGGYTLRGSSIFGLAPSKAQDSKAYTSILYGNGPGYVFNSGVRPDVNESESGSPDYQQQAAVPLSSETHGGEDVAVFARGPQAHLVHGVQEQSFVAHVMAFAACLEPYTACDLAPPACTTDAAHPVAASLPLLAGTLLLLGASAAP

[9] = target: T3, Short transient receptor potential channel 4; experiment: block of DAMGO-driven TRPC4 calcium entry – cell-based, HEK293 TRPC4/mu-opioid, Fluo-4 calcium, dose response (AID 434942); type: functional;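 note: potency of inhibitors blocking the TRPC4 calcium response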
[10] = target: T4, Zinc finger protein mex-5 (Caenorhabditis elegans, UniProt Q9XUB2); experiment: potency of MEX-5 RNA-binding blockers – biochemical, C. elegans, fluorescence polarization, dose response (AID 1960)
T4 sequence (Q9XUB2 whole entry): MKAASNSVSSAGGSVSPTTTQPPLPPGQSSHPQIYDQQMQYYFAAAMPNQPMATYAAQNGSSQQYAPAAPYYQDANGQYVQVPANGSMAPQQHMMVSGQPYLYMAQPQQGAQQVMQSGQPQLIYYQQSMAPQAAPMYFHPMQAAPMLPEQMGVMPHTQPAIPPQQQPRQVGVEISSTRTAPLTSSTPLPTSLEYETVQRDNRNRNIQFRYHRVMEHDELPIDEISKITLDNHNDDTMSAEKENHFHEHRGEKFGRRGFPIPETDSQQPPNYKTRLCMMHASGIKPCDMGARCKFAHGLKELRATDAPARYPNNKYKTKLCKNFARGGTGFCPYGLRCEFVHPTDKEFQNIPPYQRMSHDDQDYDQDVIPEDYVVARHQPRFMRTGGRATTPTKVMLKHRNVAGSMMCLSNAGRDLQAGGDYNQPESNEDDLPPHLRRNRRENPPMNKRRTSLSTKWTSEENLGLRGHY

[11] = target: T5, RNA-binding protein pos-1 (Caenorhabditis elegans, UniProt G5EF15); experiment: disruptors of C. elegans POS-1 RNA interaction – biochemical, fluorescence polarization, dose response (AID 1964);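 note: purified POS-1 fused to maltose binding protein made in E. coli; potency of compounds blocking POS-1 binding to fluorescent RNA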
T5 sequence (G5EF15 whole entry): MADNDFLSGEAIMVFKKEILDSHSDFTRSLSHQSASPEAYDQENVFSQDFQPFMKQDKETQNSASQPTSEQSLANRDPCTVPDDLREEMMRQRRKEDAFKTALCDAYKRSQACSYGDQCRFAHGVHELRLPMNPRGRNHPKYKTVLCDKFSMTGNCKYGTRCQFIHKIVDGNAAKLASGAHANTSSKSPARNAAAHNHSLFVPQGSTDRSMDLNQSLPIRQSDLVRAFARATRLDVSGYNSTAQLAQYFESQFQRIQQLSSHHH

Keap1/Nrf2 = Keap1/Nrf2 (Homo sapiens, UniProt Q14145); experiment: disruptors of Keap1 binding to Nrf2 peptide – biochemical, fluorescence polarization, cherry-picked samples, dose response (AID 588683)
Chain of Keap1/Nrf2 (Q16236 whole entry): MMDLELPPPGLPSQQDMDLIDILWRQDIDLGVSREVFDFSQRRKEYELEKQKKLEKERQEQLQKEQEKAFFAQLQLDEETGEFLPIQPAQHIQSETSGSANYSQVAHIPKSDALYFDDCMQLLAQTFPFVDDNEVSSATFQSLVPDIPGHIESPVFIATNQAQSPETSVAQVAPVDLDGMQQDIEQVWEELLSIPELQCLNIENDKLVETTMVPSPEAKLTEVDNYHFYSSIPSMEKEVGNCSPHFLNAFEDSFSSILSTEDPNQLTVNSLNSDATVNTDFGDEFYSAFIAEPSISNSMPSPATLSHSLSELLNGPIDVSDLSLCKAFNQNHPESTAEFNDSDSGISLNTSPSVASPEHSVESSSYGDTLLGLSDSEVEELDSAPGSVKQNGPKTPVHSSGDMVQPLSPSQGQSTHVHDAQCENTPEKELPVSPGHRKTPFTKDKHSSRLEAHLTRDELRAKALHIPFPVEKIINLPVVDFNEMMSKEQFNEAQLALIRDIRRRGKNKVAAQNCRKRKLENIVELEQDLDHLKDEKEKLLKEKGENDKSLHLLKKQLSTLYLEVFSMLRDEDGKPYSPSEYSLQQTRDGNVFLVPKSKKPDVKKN
Chain of Keap1/Nrf2 (Q14145 whole entry): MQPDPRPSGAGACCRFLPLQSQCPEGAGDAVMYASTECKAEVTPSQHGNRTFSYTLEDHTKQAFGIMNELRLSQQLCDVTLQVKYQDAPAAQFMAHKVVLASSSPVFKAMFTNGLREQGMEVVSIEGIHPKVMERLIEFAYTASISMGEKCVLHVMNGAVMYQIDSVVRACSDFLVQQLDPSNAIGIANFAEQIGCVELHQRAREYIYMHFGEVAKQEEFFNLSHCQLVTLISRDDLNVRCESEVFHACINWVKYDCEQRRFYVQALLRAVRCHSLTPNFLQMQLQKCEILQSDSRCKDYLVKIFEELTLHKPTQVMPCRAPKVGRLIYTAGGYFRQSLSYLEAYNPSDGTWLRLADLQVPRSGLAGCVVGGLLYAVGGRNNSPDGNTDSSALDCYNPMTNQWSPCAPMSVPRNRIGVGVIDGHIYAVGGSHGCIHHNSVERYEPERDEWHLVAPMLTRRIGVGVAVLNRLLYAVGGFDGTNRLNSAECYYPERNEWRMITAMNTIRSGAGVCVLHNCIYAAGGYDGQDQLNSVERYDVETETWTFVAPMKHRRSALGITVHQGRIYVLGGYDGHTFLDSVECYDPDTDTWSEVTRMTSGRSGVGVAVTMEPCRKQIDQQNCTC

[12] = target: T6, Delta-type opioid receptor (Homo sapiens, UniProt P41143); experiment: DOR agonists, SAR follow-up, image-based (AID 2370); type: functional
T6 sequence (P41143 whole entry): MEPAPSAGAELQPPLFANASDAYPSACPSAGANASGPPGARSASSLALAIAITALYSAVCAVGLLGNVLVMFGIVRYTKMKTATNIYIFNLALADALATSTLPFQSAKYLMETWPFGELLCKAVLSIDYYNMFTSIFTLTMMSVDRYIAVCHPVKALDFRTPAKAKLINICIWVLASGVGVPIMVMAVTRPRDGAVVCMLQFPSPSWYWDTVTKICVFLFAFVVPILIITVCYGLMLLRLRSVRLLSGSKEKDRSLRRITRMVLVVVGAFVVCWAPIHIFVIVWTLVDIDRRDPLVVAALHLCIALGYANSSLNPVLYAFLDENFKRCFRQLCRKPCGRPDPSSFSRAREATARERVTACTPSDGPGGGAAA

[13] = target: T7, Kappa-type opioid receptor (Homo sapiens, UniProt P41145); experiment: kappa opioid receptor blockers, image-based, SAR follow-up (AID 2348); type: functional
T7 sequence (P41145 whole entry): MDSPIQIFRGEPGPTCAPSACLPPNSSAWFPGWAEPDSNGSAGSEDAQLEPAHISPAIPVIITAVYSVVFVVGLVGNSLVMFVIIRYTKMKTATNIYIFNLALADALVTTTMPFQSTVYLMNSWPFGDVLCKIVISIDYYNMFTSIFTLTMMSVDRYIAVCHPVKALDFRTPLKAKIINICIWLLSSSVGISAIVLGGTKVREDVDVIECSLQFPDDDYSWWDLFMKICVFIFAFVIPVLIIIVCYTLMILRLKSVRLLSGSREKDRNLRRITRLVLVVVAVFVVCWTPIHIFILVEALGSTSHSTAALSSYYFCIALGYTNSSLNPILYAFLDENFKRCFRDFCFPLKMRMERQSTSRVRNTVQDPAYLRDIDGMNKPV

[14] = target: T7, Kappa-type opioid receptor; experiment: kappa opioid receptor activation potency – imaging, image-based, SAR follow-up (AID 2359); type: functional
[15] = target: T7, Kappa-type opioid receptor; experiment: kappa opioid receptor blockers, cell-based, luminescence, beta-arrestin, SAR follow-up (AID 2285); type: functional
[16] = target: T6, Delta-type opioid receptor; experiment: delta opioid receptor blockers – image-based, SAR follow-up (AID 2357); type: functional
Mu-type opioid receptor [17] = target: T8, Mu-type opioid receptor (Homo sapiens, UniProt P35372); experiment: mu opioid receptor blockers – image-based, SAR follow-up (AID 2420); type: functional;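 note: compounds added before stimulation of receptor with agonist DAMGO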
T8 sequence (P35372 whole entry): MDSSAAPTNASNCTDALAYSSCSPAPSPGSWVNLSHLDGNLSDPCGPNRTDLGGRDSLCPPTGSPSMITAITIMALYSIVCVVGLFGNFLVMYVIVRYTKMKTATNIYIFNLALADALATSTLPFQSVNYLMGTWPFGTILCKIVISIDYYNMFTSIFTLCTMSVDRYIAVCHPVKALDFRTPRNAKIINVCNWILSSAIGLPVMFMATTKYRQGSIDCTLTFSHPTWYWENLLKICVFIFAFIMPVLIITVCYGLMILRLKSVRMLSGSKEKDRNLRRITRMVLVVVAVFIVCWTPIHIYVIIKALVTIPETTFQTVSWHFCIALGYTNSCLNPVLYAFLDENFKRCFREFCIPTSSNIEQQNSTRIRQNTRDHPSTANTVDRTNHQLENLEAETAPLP

Mu-type opioid receptor [18] = target: T8, Mu-type opioid receptor; experiment: mu opioid receptor activators, image-based, SAR follow-up (AID 2352); type: functional

T1 sequence (P98170 whole entry): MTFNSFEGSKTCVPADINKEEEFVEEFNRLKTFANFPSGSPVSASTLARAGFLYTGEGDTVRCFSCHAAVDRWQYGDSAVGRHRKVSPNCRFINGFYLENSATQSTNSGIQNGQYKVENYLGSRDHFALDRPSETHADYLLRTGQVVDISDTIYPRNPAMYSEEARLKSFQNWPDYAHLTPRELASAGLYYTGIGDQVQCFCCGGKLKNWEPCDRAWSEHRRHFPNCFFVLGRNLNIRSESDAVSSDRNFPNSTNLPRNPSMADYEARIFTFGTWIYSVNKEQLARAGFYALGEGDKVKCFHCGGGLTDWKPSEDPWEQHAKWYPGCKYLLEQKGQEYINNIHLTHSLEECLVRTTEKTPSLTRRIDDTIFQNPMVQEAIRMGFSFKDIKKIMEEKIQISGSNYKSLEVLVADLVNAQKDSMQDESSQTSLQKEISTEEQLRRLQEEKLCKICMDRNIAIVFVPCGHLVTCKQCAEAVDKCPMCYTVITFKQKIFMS

Structure (SMILES): CSc1cccc(NC(=O)CN2C(=O)c3ccccc3S2(=O)=O)c1
IC50 [1]: > 100 µM (not active)
IC50 (Leucine aminopeptidase): 5.87 µM (active)
AC50 [2]: 2.37 µM (active)
IC50 [3]: > 100 µM (inactive)

Structure (SMILES): O=C1Nc2ccc(Br)cc2/C1=N/N=C/C1=C(N2CCOCC2)C(=C\c2ccccc2)/CC1
EC50 [4]: 11.4 µM (active)
EC50 (Beta-galactosidase): > 40 µM (inactive)
IC50 [5]: > 40 µM (not active)
EC50 [6]: 9.88 µM (active)

Structure (SMILES): C/C(=N/NC(=O)c1ccc(Cn2cccn2)o1)c1cccc(NC(=O)c2ccncc2)c1
EC50 [7]: 5.31 µM (active)
EC50 [8]: > 100 µM (inactive)
EC50 [9]: 3.76 µM (active)

Structure (SMILES): COc1ccc(Nc2nc(-c3cccnc3)nc3ccccc23)cn1
EC50 [10]: 8.22 µM (active)
EC50 [11]: 12.4 µM (active)
AC50 (Keap1/Nrf2): > 52 µM (inactive)

More lines, now with the values ahead:

EC50 (Beta-galactosidase): > 40 µM (inactive)
IC50 [5]: 13.1 µM (active)
Structure (SMILES): Cc1cccc(NC(=S)NNc2ncc(C(F)(F)F)cc2Cl)c1

EC50 [12]: > 32 µM (inactive)
IC50 [13]: 6.02 µM (active)
EC50 [14]: > 32 µM (inactive)
IC50 [15]: > 10 µM (inactive)
IC50 [16]: > 32 µM (inactive)
IC50 (Mu-type opioid receptor [17]): > 32 µM (inactive)
EC50 (Mu-type opioid receptor [18]): > 32 µM (inactive)
Structure (SMILES): O=C(NC(NC(=S)Nc1ccc(F)cc1)C(Cl)(Cl)Cl)OCc1ccccc1 (stereo not drawn)
